Laboratory results: PubChem BioAssay (NCI)
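Five concentrations, 48 hours, 96-well plates. Abbreviation: GI50, concentration required for 50% inhibition of growth. TGI marks complete inhibition of growth.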

What was measured:
Experiment in all cases: NCI-60 cell line screen, 48 h
HL-60(TB) leukemia = test system: HL-60(TB) leukemia
COLO 205 colon = test system: COLO 205 colon
HCT-15 colon = test system: HCT-15 colon
SK-OV-3 ovarian = test system: SK-OV-3 ovarian
KM12 colon = test system: KM12 colon
HOP-92 NSCLC = test system: HOP-92 NSCLC
HCT-116 colon = test system: HCT-116 colon
RPMI-8226 leukemia = test system: RPMI-8226 leukemia
IGROV1 ovarian = test system: IGROV1 ovarian
HS 578T breast = test system: HS 578T breast

Structure (SMILES): S=c1[nH]c(=S)c2nnn(-c3ccccc3)c2[nH]1
- TGI (HL-60(TB) leukemia): > 100 µM
- TGI (COLO 205 colon): > 100 µM
- TGI (HCT-15 colon): > 100 µM
- TGI (SK-OV-3 ovarian): > 100 µM
- TGI (KM12 colon): > 100 µM
- TGI (HOP-92 NSCLC): > 100 µM
- TGI (HCT-116 colon): 4.49 µM
- TGI (RPMI-8226 leukemia): > 100 µM
- TGI (IGROV1 ovarian): > 100 µM

Structure (SMILES): O=CN1CCN(CC(O)CN2CCCCC2)CC1 (configuration not stated)
- TGI (HL-60(TB) leukemia): > 100 µM
- TGI (COLO 205 colon): > 100 µM
- TGI (HCT-15 colon): > 100 µM
- TGI (SK-OV-3 ovarian): > 100 µM
- TGI (KM12 colon): > 100 µM
- TGI (HCT-116 colon): > 100 µM
- TGI (HS 578T breast): > 100 µM
- TGI (RPMI-8226 leukemia): > 100 µM
- TGI (IGROV1 ovarian): > 100 µM

Structure (SMILES): CC(C)N(CCn1c2c3ccccc3ccc2c2oc(=O)c3ccccc3c21)C(C)C
- TGI (HL-60(TB) leukemia): > 100 µM
- TGI (COLO 205 colon): > 100 µM
- TGI (HCT-15 colon): > 100 µM
- TGI (SK-OV-3 ovarian): > 100 µM
- TGI (KM12 colon): > 100 µM
- TGI (HOP-92 NSCLC): > 92.3 µM
- TGI (HCT-116 colon): > 100 µM
- TGI (RPMI-8226 leukemia): > 100 µM
- TGI (IGROV1 ovarian): > 100 µM

Structure (SMILES): CC(C)C(=O)Nc1nc2c(ncn2C2OC(CO)C(O)C2O)c(=O)[nH]1 (configuration not stated)
- TGI (HL-60(TB) leukemia): > 100 µM
- TGI (COLO 205 colon): > 100 µM
- TGI (HCT-15 colon): > 100 µM
- TGI (SK-OV-3 ovarian): > 100 µM
- TGI (KM12 colon): > 100 µM
- TGI (HOP-92 NSCLC): > 100 µM
- TGI (HCT-116 colon): > 100 µM
- TGI (RPMI-8226 leukemia): > 100 µM
- TGI (IGROV1 ovarian): > 100 µM

Structure (SMILES): CC(=O)[O][Ga]([Br])[O]C(C)=O
- GI50 (HL-60(TB) leukemia): > 100 µM
- TGI (HL-60(TB) leukemia): > 100 µM
- GI50 (COLO 205 colon): > 100 µM
- TGI (COLO 205 colon): > 100 µM
- GI50 (SK-OV-3 ovarian): > 100 µM
- TGI (SK-OV-3 ovarian): > 100 µM
- GI50 (KM12 colon): > 100 µM
- TGI (KM12 colon): > 100 µM
- GI50 (HOP-92 NSCLC): > 100 µM
- TGI (HOP-92 NSCLC): > 100 µM
- GI50 (HCT-116 colon): > 100 µM
- TGI (HCT-116 colon): > 100 µM
- GI50 (RPMI-8226 leukemia): > 100 µM
- TGI (RPMI-8226 leukemia): > 100 µM
- GI50 (IGROV1 ovarian): > 100 µM
- TGI (IGROV1 ovarian): > 100 µM

Structure (SMILES): Cc1cc(C)c(NC(=O)c2sc3nc4c(cc3c2N)CN(Cc2ccccc2)CC4)c(C)c1
- GI50 (COLO 205 colon): 2.98 µM
- TGI (COLO 205 colon): 10.1 µM
- GI50 (HCT-15 colon): 2.12 µM
- TGI (HCT-15 colon): > 100 µM
- GI50 (SK-OV-3 ovarian): 5.35 µM
- TGI (SK-OV-3 ovarian): > 100 µM
- GI50 (KM12 colon): 3.26 µM
- TGI (KM12 colon): 43.1 µM
- GI50 (HOP-92 NSCLC): 0.877 µM
- TGI (HOP-92 NSCLC): 42.6 µM
- GI50 (HCT-116 colon): 2.89 µM
- TGI (HCT-116 colon): 16 µM
- GI50 (HS 578T breast): 2.66 µM
- TGI (HS 578T breast): 65.9 µM
- GI50 (RPMI-8226 leukemia): 3.18 µM
- TGI (RPMI-8226 leukemia): 35.1 µM
- GI50 (IGROV1 ovarian): 6.54 µM
- TGI (IGROV1 ovarian): > 100 µM

Structure (SMILES): Cc1nc(-[n+]2nc(-c3ccncc3)nn2-c2ccccc2)sc1C
- TGI (HL-60(TB) leukemia): > 100 µM
- TGI (COLO 205 colon): > 100 µM
- TGI (HCT-15 colon): > 100 µM
- TGI (SK-OV-3 ovarian): 67.5 µM
- TGI (KM12 colon): > 100 µM
- TGI (HCT-116 colon): > 100 µM
- TGI (HS 578T breast): > 100 µM
- TGI (RPMI-8226 leukemia): > 100 µM
- TGI (IGROV1 ovarian): > 100 µM

Structure (SMILES): O=C1c2ccccc2-c2c1c1ccccc1c(=O)n2CCCCl
- GI50 (HCT-15 colon): 5.99 µM
- TGI (HCT-15 colon): > 100 µM
- GI50 (SK-OV-3 ovarian): 19.1 µM
- TGI (SK-OV-3 ovarian): 62.2 µM
- GI50 (KM12 colon): 34 µM
- TGI (KM12 colon): > 100 µM
- GI50 (HOP-92 NSCLC): 16.8 µM
- TGI (HOP-92 NSCLC): 43.3 µM
- GI50 (HCT-116 colon): 3.65 µM
- TGI (HCT-116 colon): 17.8 µM
- GI50 (HS 578T breast): 17.6 µM
- TGI (HS 578T breast): 73.5 µM
- GI50 (RPMI-8226 leukemia): 61.7 µM
- TGI (RPMI-8226 leukemia): > 100 µM

Structure (SMILES): COC(=O)/C=C1\CCC(C)O1 (configuration not stated)
- TGI (HL-60(TB) leukemia): > 100 µM
- TGI (COLO 205 colon): > 100 µM
- TGI (HCT-15 colon): > 100 µM
- TGI (SK-OV-3 ovarian): > 100 µM
- TGI (KM12 colon): > 100 µM
- TGI (HOP-92 NSCLC): > 100 µM
- TGI (HCT-116 colon): > 100 µM
- TGI (RPMI-8226 leukemia): > 100 µM
- TGI (IGROV1 ovarian): > 100 µM
